# Data reported in ChEMBL document CHEMBL1143986, “Probing lipid- and drug-binding domains with fluorescent dyes” (Bioorg Med Chem, 2008).
# How the values were obtained:
# [1] = Aqueous solubility of the compound; type: physicochemical
# Albumin = Albumin (Bos taurus, UniProt P02769); experiment: Binding affinity to bovine serum albumin
# Albumin, sequence (P02769 whole entry): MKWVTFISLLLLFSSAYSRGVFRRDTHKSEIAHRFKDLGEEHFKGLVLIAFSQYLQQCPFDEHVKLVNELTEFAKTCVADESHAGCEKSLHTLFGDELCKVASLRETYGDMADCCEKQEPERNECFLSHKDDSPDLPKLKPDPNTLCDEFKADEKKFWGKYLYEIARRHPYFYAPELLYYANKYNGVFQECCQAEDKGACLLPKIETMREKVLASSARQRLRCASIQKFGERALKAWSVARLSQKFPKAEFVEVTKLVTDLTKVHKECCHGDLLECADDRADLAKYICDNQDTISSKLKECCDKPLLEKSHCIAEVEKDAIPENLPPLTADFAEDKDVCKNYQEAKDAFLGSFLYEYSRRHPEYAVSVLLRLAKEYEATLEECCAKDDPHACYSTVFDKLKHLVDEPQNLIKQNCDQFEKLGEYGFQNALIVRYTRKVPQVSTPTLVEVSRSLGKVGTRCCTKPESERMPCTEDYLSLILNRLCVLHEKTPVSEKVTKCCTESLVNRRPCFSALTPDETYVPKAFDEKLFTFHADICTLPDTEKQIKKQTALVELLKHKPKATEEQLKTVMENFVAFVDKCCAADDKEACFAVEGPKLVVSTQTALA
solubility [1] [µM],EC50 (Albumin) [µM],Compound
> 100,–,CCN(CC)c1ccc2nc3c4ccc(OCCCC(=O)O)cc4c(=O)cc-3oc2c1
> 100,–,CCN(CC)c1ccc2nc3c4ccc(OCCCC(=O)O)cc4c(=O)c(Br)c-3oc2c1
> 100,1.5,CCN(CC)c1ccc2nc3c4cc(OCCCC(=O)O)ccc4c(=O)cc-3oc2c1
> 100,–,CCN(CC)c1ccc2nc3c4cc(OCCCC(=O)O)ccc4c(=O)c(Br)c-3oc2c1
